Experimental data from PMC5095062, “The novel choline kinase inhibitor ICL-CCIC-0019 reprograms cellular metabolism and inhibits cancer cell growth” (Oncotarget, 2016).

Tests used:
ERK2 = ERK2 (Homo sapiens, UniProt P28482); assay: Kinase selectivity screen; type: biochemical; conditions: ERK2, 10 μM
Procedure: (§1) The substantially less demanding synthesis of ICL-CCIC-0019 compared with MN58B bears additional advantages. […] This consequently diminished intracellular PCho concentration, and importantly, the incorporation of [^3H]-choline into lipids (Figure 1D). […] To assess kinase specificity, ICL-CCIC-0019 was tested against a panel of 131 human kinases (Figure 1E and Supplementary Table S1). […] Inhibition greater than 20% was attained for insulin-like growth factor 1 (IGF-1R, 35 ± 7% inhibition), mitogen-activated protein kinase-activated protein kinase 3 (MAPKAP-K3, 33 ± 6%), extracellular signal regulated kinase 8 (ERK8, 31 ± 4%), ribosomal S6 kinase 1 (RSK1, 22 ± 6%), and v-erb-a erythroblastic leukemia viral oncogene homolog 4 (HER4, 21 ± 7%).

CLK2 = CLK2 (Homo sapiens, UniProt P49760); assay: Kinase selectivity screen; type: biochemical; conditions: CLK2, 10 μM
Procedure: as §1

PAK2 = PAK2 (Homo sapiens, UniProt Q13177); assay: Kinase selectivity screen; type: biochemical; conditions: PAK2, 10 μM
Procedure: as §1

TTK = TTK (Homo sapiens, UniProt P33981); assay: Kinase selectivity screen; type: biochemical
Procedure: as §1

GSK3b = GSK3b (Homo sapiens, UniProt P49841); assay: Kinase selectivity screen; type: biochemical
Procedure: as §1

PKCz = PKCz (Homo sapiens, UniProt Q05513); assay: Kinase selectivity screen; type: biochemical
Procedure: as §1

RSK1 = RSK1 (Homo sapiens, UniProt Q15418); assay: Kinase selectivity screen; type: biochemical; conditions: RSK1, 10 μM
RSK1, sequence (Q15418 whole entry): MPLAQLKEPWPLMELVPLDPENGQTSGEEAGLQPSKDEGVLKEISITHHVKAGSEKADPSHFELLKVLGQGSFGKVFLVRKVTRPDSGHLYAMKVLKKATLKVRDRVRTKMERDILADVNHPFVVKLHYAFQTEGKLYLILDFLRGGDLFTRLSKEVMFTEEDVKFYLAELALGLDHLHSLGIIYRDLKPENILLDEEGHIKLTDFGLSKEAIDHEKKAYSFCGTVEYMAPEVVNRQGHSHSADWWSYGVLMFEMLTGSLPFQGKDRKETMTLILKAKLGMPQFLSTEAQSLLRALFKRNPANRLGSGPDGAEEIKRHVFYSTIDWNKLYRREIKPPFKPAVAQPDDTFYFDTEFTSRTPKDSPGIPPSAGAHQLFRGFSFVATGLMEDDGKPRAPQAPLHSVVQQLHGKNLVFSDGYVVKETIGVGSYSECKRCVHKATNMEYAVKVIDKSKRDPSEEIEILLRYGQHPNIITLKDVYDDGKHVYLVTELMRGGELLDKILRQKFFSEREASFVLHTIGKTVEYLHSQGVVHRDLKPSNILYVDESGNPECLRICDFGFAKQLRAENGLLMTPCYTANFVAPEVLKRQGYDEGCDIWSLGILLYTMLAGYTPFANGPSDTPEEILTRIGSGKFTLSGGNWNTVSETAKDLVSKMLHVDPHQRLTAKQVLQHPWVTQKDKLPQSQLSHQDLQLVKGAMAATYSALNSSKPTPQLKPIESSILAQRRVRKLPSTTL
Procedure: as §1

HER4 = HER4 (Homo sapiens, UniProt Q15303); assay: Kinase selectivity screen; type: biochemical; conditions: HER4, 10 μM
HER4, sequence (Q15303 26-1308): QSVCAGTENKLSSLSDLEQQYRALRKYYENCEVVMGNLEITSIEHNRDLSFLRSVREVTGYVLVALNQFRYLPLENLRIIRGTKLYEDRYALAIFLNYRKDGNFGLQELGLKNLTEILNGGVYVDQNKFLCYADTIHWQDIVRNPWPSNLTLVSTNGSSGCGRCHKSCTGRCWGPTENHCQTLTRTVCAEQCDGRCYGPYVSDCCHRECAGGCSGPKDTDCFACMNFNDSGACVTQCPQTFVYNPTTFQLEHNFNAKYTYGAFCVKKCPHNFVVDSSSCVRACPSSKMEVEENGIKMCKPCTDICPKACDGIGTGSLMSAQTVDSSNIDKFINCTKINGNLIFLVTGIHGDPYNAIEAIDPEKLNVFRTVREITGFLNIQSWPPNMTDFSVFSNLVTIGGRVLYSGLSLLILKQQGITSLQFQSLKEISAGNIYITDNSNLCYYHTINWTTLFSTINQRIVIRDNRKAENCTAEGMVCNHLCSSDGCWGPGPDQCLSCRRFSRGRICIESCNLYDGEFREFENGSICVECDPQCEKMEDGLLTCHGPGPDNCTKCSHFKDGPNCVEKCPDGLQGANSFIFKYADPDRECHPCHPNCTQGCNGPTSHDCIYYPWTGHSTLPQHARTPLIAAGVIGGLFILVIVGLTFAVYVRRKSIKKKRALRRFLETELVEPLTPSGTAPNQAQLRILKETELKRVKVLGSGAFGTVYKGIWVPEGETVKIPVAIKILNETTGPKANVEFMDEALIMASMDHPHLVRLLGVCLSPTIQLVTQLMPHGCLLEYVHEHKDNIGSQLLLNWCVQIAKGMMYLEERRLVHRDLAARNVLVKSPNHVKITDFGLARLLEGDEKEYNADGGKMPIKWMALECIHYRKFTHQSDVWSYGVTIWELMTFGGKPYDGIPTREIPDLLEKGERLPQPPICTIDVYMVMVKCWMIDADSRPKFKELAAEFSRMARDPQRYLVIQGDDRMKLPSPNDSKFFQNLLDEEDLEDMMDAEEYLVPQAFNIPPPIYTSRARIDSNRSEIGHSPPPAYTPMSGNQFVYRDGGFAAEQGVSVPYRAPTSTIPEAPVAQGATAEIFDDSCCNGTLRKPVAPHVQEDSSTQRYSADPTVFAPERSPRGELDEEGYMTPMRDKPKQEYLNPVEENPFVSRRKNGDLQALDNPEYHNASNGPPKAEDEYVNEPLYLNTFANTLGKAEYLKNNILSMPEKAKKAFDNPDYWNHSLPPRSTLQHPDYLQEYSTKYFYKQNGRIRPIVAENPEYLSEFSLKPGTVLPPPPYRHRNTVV
Procedure: as §1

MEKK1 = MEKK1 (Homo sapiens, UniProt Q13233); assay: Kinase selectivity screen; type: biochemical; conditions: MEKK1, 10 μM
Procedure: as §1

MARK2 = MARK2 (Homo sapiens, UniProt Q7KZI7); assay: Kinase selectivity screen; type: biochemical; conditions: MARK2, 10 μM
Procedure: as §1

SIK2 = SIK2 (Homo sapiens, UniProt Q9H0K1); assay: Kinase selectivity screen; type: biochemical; conditions: SIK2, 10 μM
Procedure: as §1

MINK1 = MINK1 (Homo sapiens, UniProt Q8N4C8); assay: Kinase selectivity screen; type: biochemical; conditions: MINK1, 10 μM
Procedure: as §1

BTK = BTK (Homo sapiens, UniProt Q06187); assay: Kinase selectivity screen; type: biochemical
Procedure: as §1

CK1γ2 = CK1γ2 (Homo sapiens, UniProt P78368); assay: Kinase selectivity screen; type: biochemical; conditions: CK1γ2, 10 μM
Procedure: as §1

IGF-1R = IGF-1R (Homo sapiens, UniProt P08069); assay: Kinase selectivity screen; type: biochemical
IGF-1R, sequence (P08069 31-1367): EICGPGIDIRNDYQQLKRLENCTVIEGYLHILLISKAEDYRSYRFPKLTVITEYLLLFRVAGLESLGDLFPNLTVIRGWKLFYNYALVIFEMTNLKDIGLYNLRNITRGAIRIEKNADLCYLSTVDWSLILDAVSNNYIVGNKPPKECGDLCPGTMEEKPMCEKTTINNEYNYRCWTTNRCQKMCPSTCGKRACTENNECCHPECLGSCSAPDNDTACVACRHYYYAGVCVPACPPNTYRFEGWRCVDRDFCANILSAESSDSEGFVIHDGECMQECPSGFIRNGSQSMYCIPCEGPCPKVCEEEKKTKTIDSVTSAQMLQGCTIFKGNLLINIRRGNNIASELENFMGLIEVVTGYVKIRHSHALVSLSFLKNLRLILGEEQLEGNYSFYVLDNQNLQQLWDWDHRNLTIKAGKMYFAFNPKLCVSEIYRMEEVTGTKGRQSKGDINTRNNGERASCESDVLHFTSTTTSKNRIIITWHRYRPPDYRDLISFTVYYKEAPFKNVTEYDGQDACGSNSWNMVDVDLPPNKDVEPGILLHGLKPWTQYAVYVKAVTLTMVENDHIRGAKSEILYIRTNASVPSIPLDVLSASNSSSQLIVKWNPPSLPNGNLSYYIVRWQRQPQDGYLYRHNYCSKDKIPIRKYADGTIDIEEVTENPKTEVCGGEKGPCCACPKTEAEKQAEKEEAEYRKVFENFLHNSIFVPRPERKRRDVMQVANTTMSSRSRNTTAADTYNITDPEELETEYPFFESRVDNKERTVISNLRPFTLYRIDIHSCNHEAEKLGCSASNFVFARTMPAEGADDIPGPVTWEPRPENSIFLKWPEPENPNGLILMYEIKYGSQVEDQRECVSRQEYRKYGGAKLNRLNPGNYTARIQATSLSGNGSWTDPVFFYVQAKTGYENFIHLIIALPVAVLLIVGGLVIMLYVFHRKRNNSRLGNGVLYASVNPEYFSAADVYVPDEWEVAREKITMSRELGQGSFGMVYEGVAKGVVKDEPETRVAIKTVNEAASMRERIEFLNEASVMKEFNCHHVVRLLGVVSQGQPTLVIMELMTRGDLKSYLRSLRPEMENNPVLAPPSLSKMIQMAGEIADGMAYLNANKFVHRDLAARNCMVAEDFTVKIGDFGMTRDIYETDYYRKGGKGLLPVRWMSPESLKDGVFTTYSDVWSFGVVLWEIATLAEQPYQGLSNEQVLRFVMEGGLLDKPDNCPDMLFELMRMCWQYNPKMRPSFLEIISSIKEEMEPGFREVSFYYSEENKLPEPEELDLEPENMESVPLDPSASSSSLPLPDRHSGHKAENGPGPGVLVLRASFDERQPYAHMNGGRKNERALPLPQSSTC
Procedure: as §1

MSK1 = MSK1 (Homo sapiens, UniProt O75582); assay: Kinase selectivity screen; type: biochemical; conditions: MSK1, 10 μM
MSK1, sequence (O75582 whole entry): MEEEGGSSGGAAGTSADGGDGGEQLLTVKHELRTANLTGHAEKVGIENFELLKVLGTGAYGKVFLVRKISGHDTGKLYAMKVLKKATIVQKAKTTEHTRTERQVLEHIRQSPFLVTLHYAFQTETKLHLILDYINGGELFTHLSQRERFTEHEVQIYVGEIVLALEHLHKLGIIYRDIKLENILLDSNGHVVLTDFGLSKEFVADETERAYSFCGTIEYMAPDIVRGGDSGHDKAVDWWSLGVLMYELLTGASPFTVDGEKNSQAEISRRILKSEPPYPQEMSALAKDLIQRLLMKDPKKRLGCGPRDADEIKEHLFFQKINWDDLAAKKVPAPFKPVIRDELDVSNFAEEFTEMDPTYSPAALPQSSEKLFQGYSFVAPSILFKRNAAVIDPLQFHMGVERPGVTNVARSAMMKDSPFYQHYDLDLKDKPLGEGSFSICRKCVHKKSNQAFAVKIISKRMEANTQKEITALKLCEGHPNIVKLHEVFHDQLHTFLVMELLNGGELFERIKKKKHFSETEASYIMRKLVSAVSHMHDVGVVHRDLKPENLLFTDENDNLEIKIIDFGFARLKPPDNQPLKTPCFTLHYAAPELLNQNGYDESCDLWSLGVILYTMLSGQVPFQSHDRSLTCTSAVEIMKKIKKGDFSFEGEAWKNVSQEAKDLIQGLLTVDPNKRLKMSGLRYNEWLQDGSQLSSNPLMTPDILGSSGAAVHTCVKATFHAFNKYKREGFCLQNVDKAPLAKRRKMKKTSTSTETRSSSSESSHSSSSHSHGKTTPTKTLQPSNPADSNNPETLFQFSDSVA
Procedure: as §1

ROCK 2 = ROCK 2 (Homo sapiens, UniProt O75116); assay: Kinase selectivity screen; type: biochemical; conditions: ROCK 2, 10 μM
Procedure: as §1

SYK = SYK (Homo sapiens, UniProt P43405); assay: Kinase selectivity screen; type: biochemical
Procedure: as §1

PDK1 = PDK1 (Homo sapiens, UniProt O15530); assay: Kinase selectivity screen; type: biochemical; conditions: PDK1, 10 μM
Procedure: as §1

ZAP70 = ZAP70 (Homo sapiens, UniProt P43403); assay: Kinase selectivity screen; type: biochemical; conditions: ZAP70, 10 μM
Procedure: as §1

HIPK1 = HIPK1 (Homo sapiens, UniProt Q86Z02); assay: Kinase selectivity screen; type: biochemical; conditions: HIPK1, 10 μM
Procedure: as §1

MARK4 = MARK4 (Homo sapiens, UniProt Q96L34); assay: Kinase selectivity screen; type: biochemical; conditions: MARK4, 10 μM
Procedure: as §1

TBK1 = TBK1 (Homo sapiens, UniProt Q9UHD2); assay: Kinase selectivity screen; type: biochemical; conditions: TBK1, 10 μM
TBK1, sequence (Q9UHD2 whole entry): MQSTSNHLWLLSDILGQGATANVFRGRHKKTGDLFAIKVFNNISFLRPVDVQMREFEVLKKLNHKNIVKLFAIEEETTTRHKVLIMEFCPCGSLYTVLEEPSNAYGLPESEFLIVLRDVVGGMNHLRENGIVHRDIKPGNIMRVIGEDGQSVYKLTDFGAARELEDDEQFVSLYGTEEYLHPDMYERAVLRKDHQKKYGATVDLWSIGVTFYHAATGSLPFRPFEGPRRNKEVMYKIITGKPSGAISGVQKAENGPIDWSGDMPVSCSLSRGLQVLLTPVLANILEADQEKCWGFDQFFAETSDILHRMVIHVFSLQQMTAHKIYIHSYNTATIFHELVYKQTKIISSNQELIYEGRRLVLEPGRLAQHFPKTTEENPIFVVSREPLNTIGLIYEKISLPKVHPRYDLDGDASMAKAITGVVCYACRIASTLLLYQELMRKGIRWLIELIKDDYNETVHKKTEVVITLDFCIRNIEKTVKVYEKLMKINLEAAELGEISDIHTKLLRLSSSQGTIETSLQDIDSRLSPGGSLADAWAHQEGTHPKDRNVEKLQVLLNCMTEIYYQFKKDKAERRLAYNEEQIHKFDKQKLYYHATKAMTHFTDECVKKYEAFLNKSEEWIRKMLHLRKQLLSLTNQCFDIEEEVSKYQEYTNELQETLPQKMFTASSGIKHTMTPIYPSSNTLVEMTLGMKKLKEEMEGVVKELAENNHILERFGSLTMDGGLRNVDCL
Procedure: as §1

MELK = MELK (Homo sapiens, UniProt Q14680); assay: Kinase selectivity screen; type: biochemical
Procedure: as §1

SRPK1 = SRPK1 (Homo sapiens, UniProt Q96SB4); assay: Kinase selectivity screen; type: biochemical; conditions: SRPK1, 10 μM
Procedure: as §1

EPH-B3 = EPH-B3 (Homo sapiens, UniProt P54753); assay: Kinase selectivity screen; type: biochemical; conditions: EPH-B3, 10 μM
Procedure: as §1

HCT116 xenografts = assay: Kinetic modeling of [18F]-D4-FCH PET data; type: in vivo, BALB/c nude mice
From the text: We employed kinetic modeling to further characterize ICL-CCIC-0019-mediated choline kinase inhibition in vivo. Whereas normalized tissue uptake values reflect tracer concentration in a 3-dimensional region of interest, kinetic modeling accounts for tissue uptake relative to plasma. A two-tissue irreversible compartmental model, as previously reported, was employed with the hypothesis that k3 would represent the rate by which the tracer is phosphorylated by choline kinase, (Supplementary Figure S2C). Although this enzymatic reaction is in principle reversible, it was assumed that the high dependency of cancer cells to incorporate choline made it unlikely that catalytic hydrolysis of PCho prevails. Best fits and more physiological parameters were obtained with a 3k (excluding k4) instead of a 4k model. […] In all examined tissues, the blood volume Vb decreased initially after treatment (Supplementary Figure S2D). These perfusion deficits were more pronounced and persistent in tumor compared to liver and kidney. To rule out that these kinetic changes are solely due to choline transport inhibition, we analyzed the choline metabolites of [^18F]-D4-FCH in HCT116 cells treated with ICL-CCIC-0019. As expected for CHKA inhibition, ICL-CCIC-0019 decreased the [^18F]-D4-PCho peak, changing the relative ratio of [^18F]-D4-Cho:[^18F]-D4-PCho from 72:28 in the vehicle control to 87:13 in the treatment group (Supplementary Figure S2E–S2F).
Kinetic analysis of PET data was performed applying a standard two-tissue irreversible compartmental model described in detail elsewhere.

## CN(C)c1cc[n+](CCCCCCCCCCCC[n+]2ccc(N(C)C)cc2)cc1 [ICL-CCIC-0019]
ERK2
  remaining activity at 10 µM: 103%
CLK2
  remaining activity at 10 µM: 101%
PAK2
  remaining activity at 10 µM: 107%
TTK
  remaining activity at 10 µM: 101%
GSK3b
  remaining activity at 10 µM: 94%
PKCz
  remaining activity at 10 µM: 106%
RSK1
  inhibition at 10 µM: 22 ± 6%
  remaining activity at 10 µM: 78%
HER4
  inhibition at 10 µM: 21 ± 7%
  remaining activity at 10 µM: 79%
MEKK1
  remaining activity at 10 µM: 92%
MARK2
  remaining activity at 10 µM: 86%
SIK2
  remaining activity at 10 µM: 109%
MINK1
  remaining activity at 10 µM: 100%
BTK
  remaining activity at 10 µM: 131%
CK1γ2
  remaining activity at 10 µM: 92%
IGF-1R
  inhibition at 10 µM: 35 ± 7%
  remaining activity at 10 µM: 65%
MSK1
  remaining activity at 10 µM: 96%
ROCK 2
  remaining activity at 10 µM: 97%
SYK
  remaining activity at 10 µM: 92%
PDK1
  remaining activity at 10 µM: 133%
ZAP70
  remaining activity at 10 µM: 102%
HIPK1
  remaining activity at 10 µM: 106%
MARK4
  remaining activity at 10 µM: 95%
TBK1
  remaining activity at 10 µM: 108%
MELK
  remaining activity at 10 µM: 106%
SRPK1
  remaining activity at 10 µM: 106%
EPH-B3
  remaining activity at 10 µM: 107%
HCT116 xenografts; 24 hours
  decrease of tumor K1 compared to control: 73%
HCT116 xenografts; 48 hours
  decrease of tumor K1 compared to control: 75%
  macro parameter Ki (net irreversible uptake rate) in tumor: significantly decreased
